Reference: patent US8324172B2, “G protein coupled receptor agonists and antagonists and methods of activating and inhibiting G protein coupled receptors using the same” (Tufts Medical Center, Inc., priority 2000, dated 2012)
Changes are numbered by the printed parent chain. Values joined by “and” are separate entries in the source; they are usually repeats but may differ in a detail not shown here. Equal entries are not always repeated. One block for each compound: values may come before it. Where a SMILES comes first, the peptide text is derived from it. The star is where a group is joined. Palmitoyl = CCCCCCCCCCCCCCCC(=O)*

How the values were obtained:
[1] = target: T1, PAR4 (Homo sapiens, UniProt Q96RI0); assay: Inhibition of PAR4-dependent platelet Ca2+ signal (AYPGKF); type: cell-based; conditions: 3 micromolar pepducin; 200 Micromolar AYPGKF
T1 sequence (Q96RI0 18-385): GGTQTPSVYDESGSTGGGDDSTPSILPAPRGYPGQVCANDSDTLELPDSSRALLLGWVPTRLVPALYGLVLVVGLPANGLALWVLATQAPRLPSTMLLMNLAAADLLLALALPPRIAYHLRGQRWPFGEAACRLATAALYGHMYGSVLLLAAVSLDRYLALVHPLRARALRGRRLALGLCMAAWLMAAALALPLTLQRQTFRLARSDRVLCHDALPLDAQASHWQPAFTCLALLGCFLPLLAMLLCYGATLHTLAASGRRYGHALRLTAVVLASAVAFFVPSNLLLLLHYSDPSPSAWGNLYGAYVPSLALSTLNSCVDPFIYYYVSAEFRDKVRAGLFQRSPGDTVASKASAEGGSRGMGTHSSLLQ
Protocol: (§1) Platelet Ca2+ measurements were performed as in Example 1.
(§2) The integrated Ca^2+ response for the individual treatments are relative to the full Ca^2+ responses for each agonist (100%) recorded in the absence of P4pal-10 (top trace).

[2] = test system: human platelets
[3] = test system: thrombin receptors on human platelets; assay: Inhibition of thrombin-induced human platelet aggregation; conditions: 3 μM pepducin
[4] = target: T2, PAR1 (Homo sapiens, UniProt P25116); assay: Inhibition of SFLLRN-induced human platelet aggregation; type: cell-based; conditions: 3 μM pepducin, 1 min preincubation
T2 construct: expressed in transfected cells
T2 sequence (P25116 22-425): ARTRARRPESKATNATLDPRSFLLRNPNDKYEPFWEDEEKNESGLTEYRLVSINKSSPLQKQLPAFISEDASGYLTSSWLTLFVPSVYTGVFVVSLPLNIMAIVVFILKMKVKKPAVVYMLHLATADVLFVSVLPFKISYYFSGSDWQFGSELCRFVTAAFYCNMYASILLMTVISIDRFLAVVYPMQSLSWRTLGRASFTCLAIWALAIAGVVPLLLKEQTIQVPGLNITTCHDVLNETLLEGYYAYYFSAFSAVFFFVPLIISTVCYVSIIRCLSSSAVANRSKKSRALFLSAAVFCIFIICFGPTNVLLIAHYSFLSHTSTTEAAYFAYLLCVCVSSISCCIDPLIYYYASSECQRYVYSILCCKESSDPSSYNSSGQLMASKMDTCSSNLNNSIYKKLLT

[5] = target: T1, PAR4; assay: Inhibition of AYPGKF-induced human platelet aggregation; type: cell-based; conditions: AYPGKF
[6] = Tail bleeding time and rebleeding in mice; conditions: 3 μmoles/L i.v.
[7] = test system: TXA2, ADP, collagen, or GPIb/IX/V receptors; assay: Inhibition of human platelet aggregation induced by U46619, ADP, collagen or ristocetin; type: cell-based; conditions: 5 μM pepducin, ristocetin
Description: 84, 1440 (1989)) and von Willebrand factor (GPIb/IX/V) (Savage et al., Cell 94, 657 (1998)) using platelets as the biologically-relevant system.

[8] = target: T2, PAR1; assay: Inhibition of PAR1-dependent platelet Ca2+ signal; type: cell-based; conditions: SFLLRN (or thrombin) after peptide pre-treatment
Protocol: as §1, §2

[9] = target: T1, PAR4; assay: InsP formation in COS7 cells expressing PAR4; type: cell-based; parameters: expressed in transfected cells; host or cells: COS7, transient
[10] = target: T2, PAR1; assay: InsP formation in COS7 cells transiently transfected with wild-type PAR1; type: cell-based
[11] = test system: MDA-MB-231 breast cancer cells; assay: Chemoinvasion of MDA-MB-231 breast cancer cells (Transwell); type: cell-based, human; conditions: NIH3T3 conditioned medium
Protocol: Experiments were performed in order to determine if application of pepducins based on the i3 loops of PAR1, PAR2, or PAR4 would inhibit migration and invasion of breast cancer cells. It was determined that the highly invasive MDA-MB-231 breast cancer cell line expressed very high levels of functional PAR1, PAR2 and PAR4. […] Pepducins were added with NIH3T3 Conditioned medium (CM) to the bottom well of a Transwell apparatus.

[12] = target: T3, S309P PAR1 (Homo sapiens, UniProt P25116, S309P); assay: InsP formation in COS7 cells expressing S309P PAR1 mutant; type: cell-based; conditions: relative to wild type PAR1
T3 construct: expressed in transfected cells; host or cells: COS7, transient
T3 sequence (P25116 22-425 S309P): T2 sequence (P25116 22-425) with S288P

[13] = target: T2, PAR1; assay: InsP formation (PLC-β) in Rat1 fibroblasts expressing human PAR1; type: cell-based; conditions: 0.1 nM thrombin
[14] = test system: murine platelets (PAR4); assay: Aggregation of washed murine platelets; conditions: read-out: EC50 of aggregation of murine platelets
[15] = test system: delta377 PAR1; assay: InsP formation in COS7 cells expressing delta377 (C-tail deleted) PAR1 mutant; type: cell-based, human; conditions: relative to wild type PAR1

Compound: CCCCCCCCCCCCCCCC(=O)N[C@@H](CCCNC(=N)N)C(=O)N[C@@H](CS)C(=O)N[C@@H](CC(C)C)C(=O)N[C@@H](CO)C(=O)N[C@@H](CO)C(=O)N[C@@H](CO)C(=O)N[C@@H](C)C(=O)N[C@H](C(=O)N[C@@H](C)C(=O)N[C@@H](CC(N)=O)C(=O)N[C@@H](CCCNC(=N)N)C(=O)N[C@@H](CO)C(N)=O)C(C)C [Pepducin P1pal-12] (Palmitoyl-RCLSSSAVANRS-NH2)
inhibition of PAR4-dependent Ca2+ response [1]: does not block PAR4 activation
agonist activity in platelet aggregation [2]: loss of stimulatory activity
inhibition of aggregation ([3]; 3 nM thrombin, 1 min): completely blocked aggregation
inhibition of aggregation ([3]; 20 nM thrombin): not appreciably blocked
aggregation blocked [4]: 75-95%
inhibition of PAR4-dependent platelet aggregation [5]: does not inhibit PAR4-dependent platelet aggregation
effect on tail-bleeding time [6]: did not prolong tail-bleeding time
mean total bleeding time [6]: 95 s
re-bleeding / unstable haemostasis [6]: did not prolong tail-bleeding time or result in unstable haemostasis
re-bleeding / unstable haemostasis ([6]; listed as P1pal12): not observed
block of aggregation by ligands of other platelet receptors [7]: did not block aggregation
inhibition of PAR1-dependent Ca2+ response [8]: effectively inhibits PAR1 activation
inhibition of PAR1-dependent Ca2+ response ([8]; listed as P1pal12): completely block PAR1 signaling

Compound: CCCCCCCCCCCCCCCC(=O)N[C@@H](CCCNC(=N)N)C(=O)N[C@@H](CCSC)C(=O)N[C@@H](CC(C)C)C(=O)N[C@@H](CCCNC(=N)N)C(=O)N[C@@H](CO)C(=O)N[C@@H](CO)C(=O)N[C@@H](C)C(=O)N[C@@H](CCSC)C(=O)N[C@@H](CC(=O)O)C(=O)N[C@@H](CCC(=O)O)C(=O)N[C@@H](CC(N)=O)C(=O)N[C@@H](CO)C(=O)N[C@@H](CCC(=O)O)C(=O)N[C@@H](CCCCN)C(=O)N[C@@H](CCCCN)C(=O)N[C@@H](CCCNC(=N)N)C(=O)N[C@@H](CCCCN)C(=O)N[C@@H](CCCNC(=N)N)C(=O)N[C@@H](C)C(=O)N[C@H](C(=O)N[C@@H](Cc1ccccc1)C(N)=O)[C@@H](C)CC [Pepducin P2pal-21F]
activation of PAR4 (InsP) ([9]; COS7 cells): not PAR4
activation of PAR1 (InsP) ([10]; COS7 cells, FIG. 2G): activated PAR1
inhibition of chemoinvasion [11]: 90%

Compound: CCCCCCCCCCCCCCCC(=O)N[C@@H](CCCCN)C(=O)N[C@@H](CCCCN)C(=O)N[C@@H](CO)C(=O)N[C@@H](CCCNC(=N)N)C(=O)N[C@@H](C)C(=O)N[C@@H](CC(C)C)C(=O)N[C@@H](Cc1ccccc1)C(N)=O [Pepducin P1pal-7, Pal-KKSRALF] (Palmitoyl-KKSRALF-NH2)
agonist activity in platelet aggregation [2]: loss of stimulatory activity
inhibition of chemoinvasion [11]: 30%

loss of efficacy on S309P mutant [12]: 1.6 fold
loss of potency on S309P mutant [12]: 17 fold
full extracellular agonist-stimulated InsP response ([9]; 10 nM thrombin): 3.1 fold
InsP stimulation of WT PAR1 (100%) ([10]; 0.1 nM thrombin): 9.6 fold
EC50 [14]: 0.6 nM
Compound: thrombin [reference compound]
full PAR1 thrombin response (InsP stimulation) of individual experiments [13]: 7.6 fold and 9.4 fold and 12.4 fold and 18 fold and 9.5 fold and 5.2 fold
shift of potency on delta377 mutant [15]: 22 fold
